From patent US20260193294A1, “POLYPEPTIDE INHIBITOR, AND PREPARATION METHOD THEREFOR AND USE THEREOF” (SHANGHAI HANSOH BIOMEDICAL CO., LTD., priority 2022, published 2026) come the findings set out here.

The data set can be described thus: Stability in plasma (human). The data set is classed as in vitro ADME. Here is the method:
To study the stability of the compounds of the examples in the plasmas of mice, rats, dogs and humans.
Preparation of plasma: Animal or human whole blood was collected, then put into a test tube containing an anticoagulant, and centrifuged at 3500 rpm for 10 min, and the upper pale yellow plasma was collected; • working solution of 10 μM test compound: a stock solution was prepared with DMSO, and the working solution was prepared with 100 mM phosphate buffer; • working solution of 10 μM positive control: • procaine: 2.36 mg of procaine was weighed and diluted into a 10 mM stock solution with 1 mL of DMSO. 10 μL of the 10 mM stock solution was pipetted into 1 mL of 100 mM phosphate buffer, such that the final concentration was 100 μM; and • enalapril: 4.93 mg of enalapril was weighed and diluted into a 10 mM stock solution with 1 mL of DMSO; and 10 μL of the 10 mM stock solution was pipetted into 1 mL of 100 mM phosphate buffer, such that the final concentration was 100 μM.
In a 96-well plate, 285 μL of plasma and 15 μL of 10 μM compound (test compound, and positive control) were successively added and incubated at 37° C.
40 μL was taken at 0, 15, 30, 60, 90, and 120 min (sampling points could be fine-tuned), respectively, and 160 μL of an acetonitrile stop solution containing an internal standard was added.
After centrifugation (3500 rpm, 10 min), 50 μL of the supernatant was taken, diluted by adding 50 μL of DDH2O, and then injected for LC-MS/MS.
• Instrument: Shimadzu LC-20 AD • Chromatographic column: Phenomenex Gemiu® C18 (50*4.6 mm, 5 μm particle size) • Mobile phase: A: acetonitrile, B: 0.1% formic acid solution • Elution gradient: […]: 5% A→95% A, 2.0-2.1 min: […] • Flow rate: 0.8 mL/min • Run time: 5.0 min • Injection volume: 5 μL
• Instrument: API4000 liquid chromatography mass spectrometer, AB, US • Ion source: electrospray ionization source (ESI) • Drying gas: N2, temperature 500° C. • Electrospray voltage: 5500V • Detection mode: positive ion detection • Scan mode: multi reaction monitoring (MRM) mode • Scan time: 0.1 s
All calculations were carried out using Microsoft Excel. The peak area ratio was determined by an extracted ion chromatogram.
The residual percentage of the compound at each time point was calculated by the following equation: Residual percentage at t hours (%)=peak area ratio at t hours/peak area ratio at 0 hour×100%, in which the peak area ratio at t hr was the peak area ratio of the […] at t min; and • the slope value k was determined by linear regression on the natural logarithm of the curve of the residual percentage of the parent drug versus the incubation time.
In vitro half-life (in vitro t1/2) was determined by the slope value: […]

The half-life is the time needed for the level to fall by half in the phase considered. Low readings indicate fast loss, high ones slow loss. For the compound `CC(=O)NCCCC[C@@H]1NC(=O)[C@H](Cc2c[nH]c3c(C)cccc23)NC(=O)[C@H]([C@@H](C)O)NC(=O)[C@H](CC(N)=O)NC(=O)[C@@H](NC(C)=O)C(C)(C)SSC(C)(C)[C@@H](C(=O)N[C@@H](Cc2ccc(OCCN)cc2)C(=O)N[C@@H](Cc2ccc3ccccc3c2)C(=O)NC2(C(=O)N[C@@H](CCC(=O)O)C(=O)N[C@@H](CC(N)=O)C(=O)N[C@@H](Cc3cccnc3)C(=O)N(C)CCNC(=O)CCOCCOCC[N+](C)(C)CCNC(=O)COCCOCCNC(=O)COCCOCCNC(=O)CC[C@H](NC(=O)CCCCCCCCCCCCCCC(=O)O)C(=O)O)CCC(F)(F)CC2)NC1=O` [Example 1-16-1], the remaining at 4 h, 0.5 µM (Human plasma, 37° C., read-out: Residual ratio % at 4 h) came out at 94.8%. For the setting “human, plasma”, the half-life at 0.5 μM is 41.3 h.
